Assay results as given in US8497240B2 (priority 2006, dated 2013).
Like-named read-outs stand apart in the source and are kept apart here. Ends that are not written are not given here.

Columns and labels:
[1] = format: in vivo, NIH/Swiss mice
Method: (§1) In FIG. 3A, bars represent mean±sd, n=6-10. […] Gavage (1.5 g/kg) was given at t=0, Sample was taken at t=30 min. […] In FIG. 3B, points represent mean±sem, n=8-15.
Peptide was injected IP at t=−5 minutes into 4-hour fasted NIH/Swiss female mice. […] In FIG. 17 points represent mean+/−sem. […] Samples were taken at t=60, t=120 and t=180.

[2] = molecular target: human GIP receptor; experiment: biochemical; format: binding; conditions: read-out: GIP RBA
[3] = 30, 60 90 μg, men with IDDM; cited from earlier work
[4] = normal men, infusion; cited from earlier work
[5] = conscious rats, cited from earlier work; for EC(50) nmol/kg for inhibition of gastric emptying: subcutaneous 5 min before gavage
[6] = system: pancreatic CCK receptor; conditions: cited from earlier work
[7] = system: cardiomyocyte Gs-coupled receptors; experiment: cAMP production in neonatal cardiomyocytes (HTRF, Gs-coupled receptor activation); format: cell-based, rat; conditions: for EC50: neonatal rat cardiomyocytes
Method: Activation of cardiomyocyte Gs- and Gi-coupled receptors was determined as a measure of cAMP production.
Neonatal cardiomyocytes were isolated using a commercially available system. […] Sprague Dawley neonatal rats (1-2 days old) were decapitated and the beating heart dissected out into digestion buffer (Cellutron D1 buffer) to dissociate cells. […] The resuspended cells incubated in buffer (Cellutron D3 buffer) for sufficient time to allow optimal dispersion and minimize the need for pipetting to break up clumps. Cells released from the first 2 digestions were discarded since a significant portion of these is red blood cells. Resuspended cells were filtered and allowed to pre-plate for 1 hour on plastic in an incubator in NS media (Cellutron, N.J.) in order to remove fibroblasts. After 1 hour of pre-plating, floating cells are removed and the flask rinsed with NS media. The floating cells and the cells in the rinse media were combined and counted. Residual red blood cells, which are smaller that the cardiac myocytes, were not counted.
At Day 1, the NS media was replaced with fresh NS media.
Dose response was determined.
For Gs assays the positive control was 10 uM forskolin and negative control was buffer. For Gi assays the positive control was buffer and the negative control was 10 uM forskolin.

[8] = for Mouse Food Intake, % basal: dose per compound (4.8 to 25 nmol/Kg)
[9] = format: in vivo, NIH/Swiss mice; remark: listed apart in the source
Method: as §1
Points represent mean±sem.

[10] = format: in vivo, db/db mice; conditions: for glucose lowering in a diabetic mouse model (FIG. 4): db/db mice, IP
Method: Peptide was injected IP at t=0 immediately following baseline sample into 2-hour fasted db/db mice.

[11] = Telemetry of circulatory effects in conscious rats; conditions: 80 nmol/kg intravenous
[12] = Body composition in DIO mice; format: in vivo, C57BL/6J mice
From the text: During the study, the mice can continue to eat their high-fat diet. Water can be provided ad libitum throughout the study.
DIO mice can be implanted with subcutaneous (SC) intrascapular osmotic pumps to deliver either vehicle (50% dimethylsulfoxide (DMSO) in water) or a compound of the invention. […] Body weights and food intake can be measured over regular intervals throughout the study periods. Respiratory quotient (RQ, defined as CO2 production÷O2 consumption) and metabolic rate can be determined using whole-animal indirect calorimetry (Oxymax, Columbus Instruments, Columbus, Ohio). The mice can be euthanized by isoflurane overdose, and an index of adiposity (bilateral epididymal fat pad weight) measured. Moreover, prior to determination of epididymal weight, body composition (lean mass, fat mass) for each mouse can be analyzed using a Dual Energy X-ray Absorptiometry (DEXA) instrument per manufacturer's instructions (Lunar Piximus, GE Imaging System).

[13] = IVGTT duration of action assay (single SC injection before glucose); format: in vivo, rat
Method: To determine a duration of action using the IVGTT assay, the sample was injected SC as a single injection at one time point indicated (e.g., t=−240, −120, −60 or −30) prior to administration of glucose. IV glucose was given at t=0.

[14] = Intravenous glucose tolerance test (IVGTT), i.v. infusion; format: in vivo, rat; conditions: for insulin levels prior to the glucose challenge / insulinotropic response to an intravenous glucose challenge (IVGTT assay): 100 pmol/kg/min infusion, rats
Method: In the typical IVGTT assays the test sample was administered by IV infusion. The IV infusion of sample was initiated at t=−30 min and continued through t=90. IV glucose was given at t=0. To determine a duration of action using the IVGTT assay, the sample was injected SC as a single injection at one time point indicated (e.g., t=−240, −120, −60 or −30) prior to administration of glucose. IV glucose was given at t=0.
As described, fed, isoflurane anesthetized HSD male rats were intubated and cannulated via femoral artery and vein and allowed to stabilize for 1 hour. […] At t=0, an i.v. bolus of 5.7 mmol/kg D-glucose was administered over 2 minutes. Samples for glucose measurement and insulin concentrations were taken at various time points before and after (0 to 90 minutes) glucose infusion.

[15] = Body weight gain in diet-induced-obesity (DIO) mice; format: in vivo, C57BL/6 mice
[16] = Gastric emptying (FIG. 23A); conditions: in vivo
[17] = Glucose in rats (summary table); format: in vivo, rat
[18] = Intracellular calcium levels (FIG. 23B)
[19] = 30 minutes, read-out: EC50 of cAMP production (this experiment, FIGS. 18A/18B)
[20] = read-out: EC50 of cardiomyocyte Gs-coupled receptor activation (three independent experiments)

Compound: CC[C@H](C)[C@H](NC(=O)[C@H](CO)NC(=O)[C@H](Cc1ccc(O)cc1)NC(=O)[C@H](CC(=O)O)NC(=O)[C@H](CO)NC(=O)[C@@H](NC(=O)[C@H](Cc1ccccc1)NC(=O)[C@@H](NC(=O)CNC(=O)[C@H](CCC(=O)O)NC(=O)[C@@H](C)NC(=O)[C@@H](N)Cc1ccc(O)cc1)[C@@H](C)O)[C@@H](C)CC)C(=O)N[C@@H](C)C(=O)N[C@@H](CCSC)C(=O)N[C@@H](CC(=O)O)C(=O)N[C@@H](CCCCN)C(=O)N[C@H](C(=O)N[C@@H](Cc1c[nH]cn1)C(=O)N[C@@H](CCC(N)=O)C(=O)N[C@@H](CCC(N)=O)C(=O)N[C@@H](CC(=O)O)C(=O)N[C@@H](Cc1ccccc1)C(=O)N[C@H](C(=O)N[C@@H](CC(N)=O)C(=O)N[C@@H](Cc1c[nH]c2ccccc12)C(=O)N[C@@H](CC(C)C)C(=O)N[C@@H](CC(C)C)C(=O)N[C@@H](C)C(=O)N[C@@H](CCC(N)=O)C(=O)N[C@@H](CCCCN)C(=O)N[C@@H](CO)C(=O)NCC(=O)N[C@@H](C)C(=O)N1CCC[C@H]1C(=O)N1CCC[C@H]1C(=O)N1CCC[C@H]1C(=O)N[C@@H](CO)C(N)=O)C(C)C)[C@@H](C)CC [0601GIP4192]
- OGTT/GL (%) ([1]; 350 nmol/kg): −16%
- IC50 [2]: 7 nM

Compound: CC[C@H](C)[C@H](NC(=O)[C@@H]1CCCN1C(=O)CNC(=O)[C@H](Cc1ccccc1)NC(=O)[C@H](CC(N)=O)NC(=O)[C@H](CC(N)=O)NC(=O)[C@H](CO)NC(=O)[C@H](CO)NC(=O)[C@H](Cc1c[nH]cn1)NC(=O)[C@@H](NC(=O)[C@H](CC(C)C)NC(=O)[C@H](Cc1ccccc1)NC(=O)[C@H](CC(N)=O)NC(=O)[C@H](C)NC(=O)[C@H](CC(C)C)NC(=O)[C@H](CCCNC(=N)N)NC(=O)[C@H](CCC(N)=O)NC(=O)[C@@H](NC(=O)[C@H](C)NC(=O)[C@@H]1CSSC[C@H](NC(=O)[C@@H](N)CCCCN)C(=O)N[C@@H](CC(N)=O)C(=O)N[C@@H]([C@@H](C)O)C(=O)N[C@@H](C)C(=O)N[C@@H]([C@@H](C)O)C(=O)N1)[C@@H](C)O)C(C)C)C(=O)N[C@@H](CC(C)C)C(=O)N1CCC[C@H]1C(=O)N1CCC[C@H]1C(=O)N[C@H](C(=O)N[C@@H](CC(N)=O)C(=O)N[C@H](C(=O)NCC(=O)N[C@@H](CO)C(=O)N[C@@H](CC(N)=O)C(=O)N[C@H](C(=O)N[C@@H](Cc1ccc(O)cc1)C(N)=O)[C@@H](C)O)C(C)C)[C@@H](C)O [pramlintide, ^25,28,29Pro-h-amylin]
- half-emptying time of the stomach [3]: approximately doubled the half-emptying time of the stomach

Compound: BNP: brain natriuretic peptide
- increase in sodium excretion [4]: 2 fold
- reduction in plasma renin, angiotensin II and aldosterone secretion [4]: 50%

Compound: DY(SO3)MGWMDF [CCK-8]
- EC(50) nmol/kg for inhibition of gastric emptying [5]: 12.8 nmol/kg
- potency of binding displacement relative to unsulfated CCK-8 or CCK-4 [6]: 1000-5000

Compound: HAEGTFTSDVSSYLEGQAAKEFIAWLVKGR [GLP-1]
- cAMP activity in cardiomyocytes [7]: very low to no significant activity

Compound: KCNTATCATQRLANFLVRSSNNLGPVLPPTNVGSNTY [rat amylin]
- EC(50) nmol/kg for inhibition of gastric emptying [5]: 0.23 nmol/kg
- Mouse Food Intake, % basal ([8]; 30 min): −58 % basal
- Mouse Food Intake, % basal ([8]; 60 min): −40 % basal
- Mouse Food Intake, % basal ([8]; 120 min): −36.5 % basal
- Mouse Food Intake, % basal ([8]; 180 min): −35.5 % basal
- food intake ([8]; mouse, in vivo, ip): significant decrease in food intake within 30 min

Compound: Y(D-Ala)EGTFISDYSIAMDKIHQQDFVNWLLAQKPSSGAPPPS-NH2 [Compound 0601GIP3794]
- OGTT/GL (%) ([1]; 10 nmol/kg): −17% 10 nmol/kg
- OGTT/GL (%) ([1]; 350 nmol/kg): −21% 350 nmol/kg,
- OGTT (compared to 0601GIP3794) ([1]; mouse, in vivo): =794
- OGTT ED50 ([1]; mouse, in vivo): ED50 ~2 nmol/kg,
- OGTT response ([1]; mouse, in vivo): −21%
- Basal Glucose Lowering at 80 nmol/Kg ([9]; 80 nmol/kg, AUC180): −9%, AUC180
- Basal Glucose Lowering at Peptide Conc. of 80 nmol/kg ([9]; 80 nmol/kg, AUC240): −7 to −20%,
- glucose lowering profile over 240 min (FIGS. 8-10) ([9]; 2-hour fasted NIH/Swiss mice, IP): gradually increasing activity that peaks at t=120 min, and is more sustained than native GIP or its D-Ala2 version
- glucose lowering in normal mice (FIGS. 3A and 3B) ([9]; NIH/Swiss mice, IP): significantly more efficacious than full length GIP
- GL (glucose lowering, compared to 0601GIP3794) ([9]; mouse, in vivo): =794
- basal glucose lowering (% maximal decrease) ([9]; mouse, in vivo): −20%
- Basal Glucose Lowering in db/db ([10]; 80 nmol/kg, t = 120): −33%, 80 nmol/kg,
- glucose lowering in a diabetic mouse model (FIG. 4) [10]: pronounced and long-acting effect in lowering glucose
- dP/dt [11]: increased dP/dt similarly
- effect on heart rate [11]: transient relative to GIP
- effect on mean arterial pressure [11]: decreased mean arterial pressure
- systolic and diastolic pressures [11]: sustained lowering of systolic and diastolic pressures
- EC50 [7, 19]: 11.7 nM
- EC50 [7, 20]: 29.8 nM
- body composition ([12]; mouse, in vivo): slight decrease in percentage body fat with an increase in body protein without a concomitant reduction in body weight
- food intake ([8]; mouse, in vivo, ip): did not acutely inhibit food intake
- Duration of action in assay (insulin AUC 0-30 min) ([13]; SC inj T = −30 min): 198
- Duration of action in assay (insulin AUC 0-30 min) ([13]; SC inj T = −60 min): 159
- Duration of action in assay (insulin AUC 0-30 min) ([13]; SC inj T = −120 min): 204
- Duration of action in assay (insulin AUC 0-30 min) ([13]; SC inj T = −240 min): 79
- DOA (duration of action, compared to 0601GIP3794) ([13]; time not stated): =794
- insulin levels prior to the glucose challenge [14]: significant rise in insulin levels
- insulinotropic response to an intravenous glucose challenge (IVGTT assay) [14]: significant enhancement of the insulinotropic response
- IVGTT > = < Compared to 0601GIP3794 ([14]; rat, in vivo): =
- Standard IVGTT assay IV infusion (insulin AUC 0-30 min) ([14]; rat, in vivo, iv): 249

Compound: YAEGTFISDYSIAMDKIHQQDFVNWLLAQKGKKNDWKHNITQ-OH [GIP, reference compound]
- OGTT ([1]; mice, effect on glucose): decreases
- OGTT response ([1]; mouse, in vivo): −10%
- Glucose mice ([9]; mice): weak
- basal glucose lowering (% maximal decrease) ([9]; mouse, in vivo): 0%
- glucose lowering in a diabetic mouse model (FIG. 4) [10]: modest and wanes over time
- dP/dt [11]: increased dP/dt similarly
- effect on mean arterial pressure [11]: had no effect
- EC50 [7, 19]: 9.1 nM
- EC50 [7, 20]: 15.6 nM
- BWt (mDIO) ([15]; DIO mice): not active
- weight loss / body weight change in diet-induced-obese mice ([15]; mouse, in vivo): did not cause weight loss
- Body Comp (mDIO) ([12]; DIO mice): No effect on lean mass
- Gastric Emptying [16]: not active
- Glucose rats [17]: not active
- inhibition of gastric emptying at doses of 100 μg [5]: either weakly active or inactive
- food intake ([8]; mice, peptide injected IP): not active
- food intake ([8]; mouse, in vivo, ip): did not acutely inhibit food intake
- iCa [18]: not active
- insulin levels prior to the glucose challenge [14]: significant rise in insulin levels
- insulinotropic response to an intravenous glucose challenge (IVGTT assay) [14]: significant enhancement of the insulinotropic response

Compound: adrenomedullin: amylin family peptide hormone (YRQSMNNFQGLRSFGCRFGTCTVQKLAHQIYQFTDKDKDNVAPRSKISPQGY; ends and bridges not checked; cysteine pairing not given here; UniProt P35318 95-146, looked up)
- inhibition of gastric emptying at doses of 100 μg [5]: either weakly active or inactive

Compound: glucagon: peptide hormone
- inhibition of gastric emptying at doses of 100 μg [5]: either weakly active or inactive

Compound: insulin: peptide hormone
- inhibition of gastric emptying at doses of 100 μg [5]: either weakly active or inactive

Compound: neuropeptide Y: peptide hormone of the pancreatic polypeptide family
- inhibition of gastric emptying at doses of 100 μg [5]: either weakly active or inactive
